Earlier results as cited in patent US8545896B2, “Compositions, kits and methods for nutrition supplementation” (Chemo S. A. France, priority 2011, dated 2013).

Conditions: intake of about 1000 IU per day, all adults

C=C1CC[C@H](O)C/C1=C/C=C1\CCC[C@]2(C)[C@@H]([C@H](C)CCCC(C)C)CC[C@@H]12 [vitamin D3, cholecalciferol]
share of the population brought up to the 30 ng/ml serum range for 25-hydroxyvitamin D: at least 50%
